Test results published in ChEMBL document CHEMBL2074246, “Distinct groups of multidrug resistance modulating agents are distinguished by competition of P-glycoprotein-specific antibodies” (Biochem Biophys Res Commun, 2004).
Values belong to the molecule of their own block, whether it stands above or below them. *1 amine or outer side, *2 acyl side, *3 side chain or, on linkers, in order; H or OH if unused. Where a SMILES comes first, the peptide text is derived from it. Bridges are numbered along the chain shown (N, C = ends). Roman numbers before positions name the chains, in order. [ ]: non-standard residue; d: D form. The star is where a group is joined. Actinocin(9to1) = Cc1c2oc3c(C)ccc(C(=O)[*:1])c3nc-2c(C(=O)[*:2])c(N)c1=O; NMeV = CN[C@H](C(=O)O)C(C)C; NHCH2CH2OH = OCCN*; Sar = CNCC(=O)O; For = O=C*

What was measured:
Assay type in all cases: functional, cell-based
[1] = target: T1, ATP-dependent translocase ABCB1 (Homo sapiens, UniProt P08183); assay: TP_TRANSPORTER: increase in Calcein-AM intracellular accumulation (Calcein-AM: 0.5uM, Nonidet P-40:6x10-4a%) in MDR1-expressing NIH-3T3 cells; conditions: mouse, nih3t3
[2] = target: T1, ATP-dependent translocase ABCB1; assay: TP_TRANSPORTER: increase in Calcein-AM intracellular accumulation (Calcein-AM: 0.5 uM, Hoechst 33342: 50 uM) in MDR1-expressing NIH-3T3 cells; conditions: mouse, nih3t3, 50 µM
[3] = target: T1, ATP-dependent translocase ABCB1; assay: TP_TRANSPORTER: increase in Calcein-AM intracellular accumulation (Calcein-AM: 0.5 uM, m-Amsacrine: 5 uM) in MDR1-expressing NIH-3T3 cells; conditions: mouse, nih3t3, 5 µM
[4] = target: T1, ATP-dependent translocase ABCB1; assay: TP_TRANSPORTER: increase in Calcein-AM intracellular accumulation (Calcein-AM: 0.5 uM, Benzocaine: 20 uM) in MDR1-expressing NIH-3T3 cells; conditions: mouse, nih3t3, 20 µM
[5] = target: T1, ATP-dependent translocase ABCB1; assay: TP_TRANSPORTER: increase in Calcein-AM intracellular accumulation (Calcein-AM: 0.5 uM, Colchicine: 100 uM) in MDR1-expressing NIH-3T3 cells; conditions: mouse, nih3t3, 100 µM
[6] = target: T1, ATP-dependent translocase ABCB1; assay: TP_TRANSPORTER: increase in Calcein-AM intracellular accumulation (Calcein-AM: 0.5 uM, Actinomycin D: 40 uM) in MDR1-expressing NIH-3T3 cells; conditions: mouse, nih3t3, 40 µM
[7] = target: T1, ATP-dependent translocase ABCB1; assay: TP_TRANSPORTER: increase in Calcein-AM intracellular accumulation (Calcein-AM: 0.5 uM, Desipramine: 20 uM) in MDR1-expressing NIH-3T3 cells; conditions: mouse, nih3t3, 20 µM
[8] = target: T1, ATP-dependent translocase ABCB1; assay: TP_TRANSPORTER: increase in Calcein-AM intracellular accumulation (Calcein-AM: 0.5 uM, Galangin: 50 uM) in MDR1-expressing NIH-3T3 cells; conditions: mouse, nih3t3, 50 µM
[9] = target: T1, ATP-dependent translocase ABCB1; assay: TP_TRANSPORTER: increase in Calcein-AM intracellular accumulation (Calcein-AM: 0.5 uM, Genistein: 40 uM) in MDR1-expressing NIH-3T3 cells; conditions: mouse, nih3t3, 40 µM
[10] = target: T1, ATP-dependent translocase ABCB1; assay: TP_TRANSPORTER: increase in Calcein-AM intracellular accumulation (Calcein-AM: 0.5 uM, Gramicidin D: 10 uM) in MDR1-expressing NIH-3T3 cells; conditions: mouse, nih3t3, 10 µM
[11] = target: T1, ATP-dependent translocase ABCB1; assay: TP_TRANSPORTER: increase in Calcein-AM intracellular accumulation (Calcein-AM: 0.5 uM, Haloperidol: 80 uM) in MDR1-expressing NIH-3T3 cells; conditions: mouse, nih3t3, 80 µM
[12] = target: T1, ATP-dependent translocase ABCB1; assay: TP_TRANSPORTER: increase in Calcein-AM intracellular accumulation (Calcein-AM: 0.5 uM, Imipramine: 20 uM) in MDR1-expressing NIH-3T3 cells; conditions: mouse, nih3t3, 20 µM
[13] = target: T1, ATP-dependent translocase ABCB1; assay: TP_TRANSPORTER: increase in Calcein-AM intracellular accumulation (Calcein-AM: 0.5 uM, Lidocaine: 20 uM) in MDR1-expressing NIH-3T3 cells; conditions: mouse, nih3t3, 20 µM
[14] = target: T1, ATP-dependent translocase ABCB1; assay: TP_TRANSPORTER: increase in Calcein-AM intracellular accumulation (Calcein-AM: 0.5 uM, Mibefradil: 18 uM) in MDR1-expressing NIH-3T3 cells; conditions: mouse, nih3t3, 18 µM
[15] = target: T1, ATP-dependent translocase ABCB1; assay: TP_TRANSPORTER: increase in Calcein-AM intracellular accumulation (Calcein-AM: 0.5 uM, Mitomycin C: 20 uM) in MDR1-expressing NIH-3T3 cells; conditions: mouse, nih3t3, 20 µM

T1 sequence (P08183 whole entry): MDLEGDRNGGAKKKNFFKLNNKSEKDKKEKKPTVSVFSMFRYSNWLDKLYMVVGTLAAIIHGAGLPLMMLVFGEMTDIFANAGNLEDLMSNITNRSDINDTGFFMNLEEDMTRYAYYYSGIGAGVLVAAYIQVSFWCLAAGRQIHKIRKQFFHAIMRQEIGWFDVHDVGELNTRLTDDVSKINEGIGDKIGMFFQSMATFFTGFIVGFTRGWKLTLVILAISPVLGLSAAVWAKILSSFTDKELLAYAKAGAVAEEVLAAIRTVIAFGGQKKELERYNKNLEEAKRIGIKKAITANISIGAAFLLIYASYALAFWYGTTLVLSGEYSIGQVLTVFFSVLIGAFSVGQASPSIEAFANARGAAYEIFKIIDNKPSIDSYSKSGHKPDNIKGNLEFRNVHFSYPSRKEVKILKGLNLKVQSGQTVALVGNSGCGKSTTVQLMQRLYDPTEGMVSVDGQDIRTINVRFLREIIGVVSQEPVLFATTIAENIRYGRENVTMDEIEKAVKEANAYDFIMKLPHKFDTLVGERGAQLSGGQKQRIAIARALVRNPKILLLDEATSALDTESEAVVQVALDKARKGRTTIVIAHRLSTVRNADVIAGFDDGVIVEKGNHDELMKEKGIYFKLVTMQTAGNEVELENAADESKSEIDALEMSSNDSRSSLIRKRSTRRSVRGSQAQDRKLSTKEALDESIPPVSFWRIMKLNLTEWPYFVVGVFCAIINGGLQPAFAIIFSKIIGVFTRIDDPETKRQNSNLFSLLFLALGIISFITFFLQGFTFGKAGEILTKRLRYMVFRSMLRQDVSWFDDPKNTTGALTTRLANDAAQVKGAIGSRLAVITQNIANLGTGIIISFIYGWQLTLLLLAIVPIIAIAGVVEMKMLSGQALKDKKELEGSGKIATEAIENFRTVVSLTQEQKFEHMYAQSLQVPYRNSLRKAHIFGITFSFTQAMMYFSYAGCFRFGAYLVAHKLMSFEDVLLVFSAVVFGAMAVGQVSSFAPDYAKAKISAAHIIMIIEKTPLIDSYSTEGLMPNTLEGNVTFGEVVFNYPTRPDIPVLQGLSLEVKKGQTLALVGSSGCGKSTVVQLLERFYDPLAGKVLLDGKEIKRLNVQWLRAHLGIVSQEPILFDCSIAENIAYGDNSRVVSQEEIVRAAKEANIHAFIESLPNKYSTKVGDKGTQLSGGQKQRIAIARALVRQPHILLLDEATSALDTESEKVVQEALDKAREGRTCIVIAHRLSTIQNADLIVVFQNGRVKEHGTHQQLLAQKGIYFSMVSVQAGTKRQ

Structure (SMILES): CC(C)(C)CC(C)(C)c1ccc(OCCOCCO)cc1
Activity [1]: inhibitor [+]

Structure (SMILES): CCOc1ccc(-c2nc3cc(-c4nc5cc(N6CCN(C)CC6)ccc5[nH]4)ccc3[nH]2)cc1
Activity [2]: is not an inhibitor [-]

Activity [3]: inhibitor [+]
Structure (SMILES): COc1cc(NS(C)(=O)=O)ccc1Nc1c2ccccc2nc2ccccc12 [AMSACRINE]

Activity [4]: inhibitor [+]
Structure (SMILES): CCOC(=O)c1ccc(N)cc1 [BENZOCAINE]

Structure (SMILES): COc1cc2c(c(OC)c1OC)-c1ccc(OC)c(=O)cc1[C@@H](NC(C)=O)CC2 [COLCHICINE]
Activity [5]: is not an inhibitor [-]

Activity [6]: inhibitor [+]
Structure (SMILES): Cc1c2oc3c(C)ccc(C(=O)N[C@@H]4C(=O)N[C@H](C(C)C)C(=O)N5CCC[C@H]5C(=O)N(C)CC(=O)N(C)[C@@H](C(C)C)C(=O)O[C@@H]4C)c3nc-2c(C(=O)N[C@@H]2C(=O)N[C@H](C(C)C)C(=O)N3CCC[C@H]3C(=O)N(C)CC(=O)N(C)[C@@H](C(C)C)C(=O)O[C@@H]2C)c(N)c1=O [DACTINOMYCIN] (I: T[dV]P[Sar][NMeV] / II: T[dV]P[Sar][NMeV]; ester I:1-I:C, II:1-II:C; linker I:N-II:N via Actinocin(9to1))

Activity [7]: inhibitor [+]
Structure (SMILES): CNCCCN1c2ccccc2CCc2ccccc21 [DESIPRAMINE]

Activity [8]: inhibitor [+]
Structure (SMILES): O=c1c(O)c(-c2ccccc2)oc2cc(O)cc(O)c12 [GALANGIN]

Activity [9]: inhibitor [+]
Structure (SMILES): O=c1c(-c2ccc(O)cc2)coc2cc(O)cc(O)c12 [GENISTEIN]

Structure (SMILES): CC(C)C[C@@H](NC(=O)[C@H](C)NC(=O)CNC(=O)[C@@H](NC=O)C(C)C)C(=O)N[C@@H](C)C(=O)N[C@@H](C(=O)N[C@H](C(=O)N[C@@H](C(=O)N[C@@H](Cc1c[nH]c2ccccc12)C(=O)N[C@H](CC(C)C)C(=O)N[C@@H](Cc1c[nH]c2ccccc12)C(=O)N[C@H](CC(C)C)C(=O)N[C@@H](Cc1c[nH]c2ccccc12)C(=O)N[C@H](CC(C)C)C(=O)N[C@@H](Cc1c[nH]c2ccccc12)C(=O)NCCO)C(C)C)C(C)C)C(C)C [GRAMICIDIN D] (For-VGA[dL]A[dV]V[dV]W[dL]W[dL]W[dL]W-NHCH2CH2OH)
Activity [10]: is not an inhibitor [-]

Activity [11]: inhibitor [+]
Structure (SMILES): O=C(CCCN1CCC(O)(c2ccc(Cl)cc2)CC1)c1ccc(F)cc1 [HALOPERIDOL]

Activity [12]: inhibitor [+]
Structure (SMILES): CN(C)CCCN1c2ccccc2CCc2ccccc21 [IMIPRAMINE]

Activity [13]: is not an inhibitor [-]
Structure (SMILES): CCN(CC)CC(=O)Nc1c(C)cccc1C [LIDOCAINE]

Activity [14]: inhibitor [+]
Structure (SMILES): COCC(=O)O[C@]1(CCN(C)CCCc2nc3ccccc3[nH]2)CCc2cc(F)ccc2[C@@H]1C(C)C [MIBEFRADIL]

Activity [15]: is not an inhibitor [-]
Structure (SMILES): CO[C@@]12[C@H](COC(N)=O)C3=C(C(=O)C(C)=C(N)C3=O)N1C[C@@H]1N[C@@H]12 [MITOMYCIN]
